From patent US10363249B2, “Fatty acid synthase inhibitor for use in the treatment of drug resistant cancer” (3-V Biosciences, Inc., priority 2014, dated 2019)
Where “and” joins values, the source holds several entries; their conditions need not be identical. Identical values can stand only once.

Tests used:
[1] = system: MIA PaCa-2 AbR (paclitaxel resistant) cells; experiment: Nab-paclitaxel dose response with fixed FASN inhibitor, CellTiter-Glo viability, MIA PaCa-2 AbR; settings: for 3-Day IC50 Ratio + Compound 5 / 7-Day IC50 Ratio + Compound 5: MIA PaCa-2 AbR
Protocol: (§1) For drug treatment, MIA PaCa-2 or BxPC-3 cells were plated in %-well plates in RPMI medium plus 10% FBS. Parental (paclitaxel sensitive) or AbR (paclitaxel resistant) variants of the MIA PaCa-2 or BxPC-3 cell lines were used. […] Serial dilutions of Nab-paclitaxel were prepared in DMSO and further diluted 1:10 in RPMI medium for addition to the assay solution. RPMI-diluted compounds were added to each well 24-hours after cell plating. Assays were done in triplicate for each drug concentration, with cell viability measured at 3 or 7 days after compound addition. The number of viable cells was measured using the CellTiter-Glo assay (Promega) according to the manufactures instructions. Luminosity per well was determined and the signal intensity was analyzed versus drug concentration. For each FASN inhibitor, the concentration of drug resulting in 50% inhibition of the maximum signal was determined, and this value was reported as the IC50.

[2] = system: BxPC3 Parental (paclitaxel sensitive) cells; experiment: Nab-paclitaxel dose response with fixed FASN inhibitor, CellTiter-Glo viability, BxPC3 Parental
Protocol: as §1

[3] = system: BxPC3 AbR (paclitaxel resistant) cells; experiment: Nab-paclitaxel dose response with fixed FASN inhibitor, CellTiter-Glo viability, BxPC3 AbR; settings: for 3-Day IC50 Ratio + Compound 5 / 7-Day IC50 Ratio + Compound 5: BxPC3 AbR
Protocol: as §1

[4] = system: MIA PaCa-2 Parental (paclitaxel sensitive) cells; experiment: Nab-paclitaxel dose response with fixed FASN inhibitor, CellTiter-Glo viability, MIA PaCa-2 Parental
Protocol: as §1

3-Day IC50 Ratio + Compound 5 ([1]; + Compound 5 0.2 μM): 1.46 | 7-Day IC50 Ratio + Compound 5 ([1]; + Compound 5 0.2 μM): 1.04 | 3-Day IC50 Ratio + Compound 5 ([1]; + Compound 5 2.0 μM): 2.73 | 7-Day IC50 Ratio + Compound 5 ([1]; + Compound 5 2.0 μM): 3.37 | shift of the MIA PaCa-2 Nab-paclitaxel IC50 value ([1]; MIA PaCa-2 paclitaxel resistant (AbR), Compound 5, 3 and 7 days (Table 2)): 2.7 fold and 3.4 fold | 3-Day IC50 Ratio + Compound 5 ([3]; + Compound 5 0.2 μM): 1.46 | 7-Day IC50 Ratio + Compound 5 ([3]; + Compound 5 0.2 μM): 1.29 | 3-Day IC50 Ratio + Compound 5 ([3]; + Compound 5 2.0 μM): 5.57 | 7-Day IC50 Ratio + Compound 5 ([3]; + Compound 5 2.0 μM): 3.98 | shift of the BxPC-3 Nab-paclitaxel IC50 value ([3]; BxPC-3 paclitaxel resistant (AbR), Compound 5, 3 and 7 days (Table 2)): 4.0 fold and 5.6 fold
SMILES: Cc1cc(C)c(-c2[nH]c(C3COC3)nc2C)cc1C(=O)N1CC(c2ccc(C#N)cc2)C1 [Compound 5]
3-Day IC50 Ratio + Compound 5 ([2]; + Compound 5 0.2 μM): 0.92 | 7-Day IC50 Ratio + Compound 5 ([2]; + Compound 5 0.2 μM): 0.61 | 3-Day IC50 Ratio + Compound 5 ([2]; + Compound 5 2.0 μM): 0.63 | 7-Day IC50 Ratio + Compound 5 ([2]; + Compound 5 2.0 μM): 0.63 | 3-Day IC50 Ratio + Compound 5 ([4]; + Compound 5 0.2 μM): 1.18 | 7-Day IC50 Ratio + Compound 5 ([4]; + Compound 5 0.2 μM): 1.09 | 3-Day IC50 Ratio + Compound 5 ([4]; + Compound 5 2.0 μM): 1.59 | 7-Day IC50 Ratio + Compound 5 ([4]; + Compound 5 2.0 μM): 1.88
